In patent US20030153513A1, “Preventives or remedies for obesity or fatty liver” (priority 2000, published 2003):

Tests used:
Format in all cases: in vivo
KKA^y/Ta Jcl mice [1] = test: Test Example 1: body weight increase, obesity model mice, 12 weeks oral; conditions: 10 mg/kg/day oral, FIG. 1-B
Protocol: (§1) In the test example, each 10 of the male KKA^y/Ta Jcl mice and C57BL/6J mice aged 10 weeks were used as obesity model mice and non-obesity normal model mice, respectively. The compound of Preparation 1 was orally administered to the animals at 10 mg/kg/day for 12 weeks continuously, and the body weights of the animals were daily measured. Four hours after the final administration of the compound, the animals were sacrificed, and the levels of triglyceride in the liver tissues were determined.
(§2) The compound of Preparation 1 had been suspended in an aqueous solution of 5% gum arabic (Nakarai Chemcial, Lot. M5E5329) to provide a 0.1% suspension for use. As a control, only a vehicle (5% aqueous gum arabic solution) was administered as well, and the triglyceride level was also determined.

C57BL/6J mice [2] = test: Test Example 1: triglyceride level in liver tissue, normal mice, 12 weeks oral; conditions: oral administration for 12 weeks, 10 mg/kg/day, 4 h after final dose
Protocol: as §1, §2

KKA^y/Ta Jcl mice [3] = test: Test Example 1: triglyceride level in liver tissue, obesity model mice, 12 weeks oral; conditions: 10 mg/kg/day
Protocol: as §1, §2

KKAy/Ta Jcl mice = test: Test Example 2: triglyceride level in liver tissue, obesity model mice, 2 weeks
Protocol: In a similar way to Test Example 1, the male KKAy/Ta Jcl mice aged 10 weeks were orally administered with the compound of Preparation 1 at 10 mg/kg/day, and fed a diet containing 3% cholestyramine (corresponding to about 4 g/kg/day) for two weeks continuously, and the level of triglyceride in the liver tissue was determined (eight animals per group). Also, the control was administered with only a vehicle (5% aqueous gum arabic solution).

C57BL/6J mice [4] = test: Test Example 1: body weight increase, non-obesity normal mice, 12 weeks oral; conditions: non-obesity normal C57BL/6J mice, 10 mg/kg/day oral, FIG. 1-A
Protocol: as §1, §2

Which results are given for `CCC(CC)CC(=O)c1c(C(=O)OC)c(-c2ccc(OC)c(OC)c2)c2c(OC)c(OC)c(OC)cc2c1O` [Compound of Prep. 1, Methyl 1-(3,4-dimethoxyphenyl)-3-(3-ethylvalelyl)-4-hydroxy-6,7,8-trimethoxy-2-naphthoate]?
inhibition of weight gain (KKA^y/Ta Jcl mice [1]): significant inhibition of weight gain; triglyceride (liver tissue) (C57BL/6J mice [2]): 13.2 ± 1.2 mg/g; triglyceride level in the liver tissue compared to the control (in words) (KKA^y/Ta Jcl mice [3]; 12 weeks oral, as shown in Table 1): significant decrease; triglyceride (liver tissue) (KKA^y/Ta Jcl mice [3]; KKA^y mice, oral administration for 12 weeks, 4 h after final dose): 74.7 ± 7.4 mg/g; triglyceride level in the liver tissue compared to the control (in words) (KKAy/Ta Jcl mice; 2 weeks, as shown in Table 2): significant decrease; triglyceride (liver tissue) (KKAy/Ta Jcl mice; administration for 2 weeks, Prep. 1 10 mg/kg/day oral, cholestyramine 3% in diet (about 4 g/kg/day)): 49.2 ± 7.7 mg/g; rate of increase in body weight compared with the control (C57BL/6J mice [4]): no significant difference
